Source: US20250281402A1, “COMPOSITIONS FOR LOCAL THERAPY DELIVERY TO BRAIN TUMORS AND METHODS” (Massachusetts Institute of Technology, priority 2022, published 2025)
Like-named read-outs stand apart in the source and are kept apart here.

Key:
GL261 = test: Potency (cell viability v. concentration) against GBM cell line GL261; format: cell-based
Description: (§1) The potencies of several therapies again GBM cells lines were measured.
(§2) FIG. 3 depicts a plot of cell viability v. concentration of each of the therapies listed in the foregoing table.

CT-2A = test: Potency (cell viability v. concentration) against GBM cell line CT-2A; format: cell-based
Description: as §1, §2

[1] = In vitro drug release from hydrogels; format: physicochemical
Description: Doxorubin release profiles of the foregoing compositions were tested.
Also compared was the cumulative release percentage of doxil and doxorubicin.
The in vitro release of acriflavine also was tested. An injectable hydrogel formulation (75% oxidized dextran, 12.5% w/v; PAMAM dendrimer, 15% w/v, pH 9.2) was prepared with four different loading concentrations (0.625 mg, 1.25 mg, 2.5 mg, and 5 mg, each of which had been previously injected locally in the brain).

GBM spheroids = test: Elimination of GBM spheroids in vitro; format: cell-based; conditions: compared with other tested chemotherapies
From the text: The other tested chemotherapies, however, may be used in the methods and compositions described herein.

GBM cells = test: Calreticulin surface expression and HMGB1 excretion of GBM cells
[2] = Mus musculus, GL261, read-out: IC50 in GL261

Row | Compound | IC50 (GL261; [2]) [µM] | IC50 (CT-2A; read-out: IC50 in CT-2A) [µM] | other results
1 | O=NN(CCCl)C(=O)NCCCl [Carmustine (BCNU), Carmustine] | 146 | 156 | 
2 | Acriflavine |  | 7.3 | IC50 (GL261; read-out: IC50 in GL261): 2.7 µM; activity upon release ([1]; released from hydrogel): retained its activity upon release
3 | CCc1c2c(nc3ccc(OC(=O)N4CCC(N5CCCCC5)CC4)cc13)-c1cc3c(c(=O)n1C2)COC(=O)[C@]3(O)CC [Irinotecan] | 107 | 150 | 
4 | Cn1nnc2c(C(N)=O)ncn2c1=O [Temozolomide] | > 750 | > 750 | 
5 | COc1cccc2c1C(=O)c1c(O)c3c(c(O)c1C2=O)C[C@@](O)(C(=O)CO)C[C@@H]3O[C@H]1C[C@H](N)[C@H](O)[C@H](C)O1 [Doxorubicin] | 0.8 | 0.1 | elimination of GBM spheroids (GBM spheroids): more potently eliminated GBM spheroids in vitro than other tested chemotherapies; surface expression of calreticulin (GBM cells; FIG. 42, FIG. 43): increase the surface expression of calreticulin; HMGB1 excretion (GBM cells; at relevant concentrations): did not impact HMGB1 excretion at relevant concentrations; IC50 (GL261; Mus musculus, GL261, comparative testing doxil v. doxorubicin, FIG. 20A/20B, read-out: potency from cell viabilities, GL261 (quantity not named)): 0.83 µM; IC50 (CT-2A; comparative testing doxil v. doxorubicin, FIG. 20A/20B, read-out: potency from cell viabilities, CT-2A (quantity not named)): 0.17 µM; cumulative percentage released, doxorubicin compared with doxil ([1]; over 200 hours, FIG. 11): greater cumulative percentage
